The values that follow come from patent US6140309A, “Vasoactive effects and free radical generation by β-amyloid peptides” (University of South Florida, priority 1996, dated 2000).

“Also recorded” adds a separate entry of the source.

For data set [1], the system named is endothelial cells in aortic rings. Nature of the data set: Electron microscopy of the endothelial cell layer in aortic rings. It is filed as cell-based, rat. As to the method:
As shown in FIGS. 14A-F, […], or in presence of β-amyloid (10^-6 M), or SOD (150 units/ml) and β-amyloid.The tissue samples were kept in glutaraldehyde solution at 4° C. until processed and then rinsed with cacodylate buffer. The tissues were postfixed with 1% buffered osmium tetroxide, dehydrated with graded ethanol solutions, and embedded in a mixture of eponaraldite. Ultrathin sections were stained with uranyl acetate and lead citrate and viewed on model 7000 Hitachi transmission electron microscope. The inset bar indicates one micron. The experiment was repeated three or more times with blood vessels from different animals.

A further data set has as its system aortic rings. Briefly: β-amyloid augmentation of phenylephrine (PE) induced contraction of aortic rings. The format is cell-based, rat. The settings on record: for PE induced contraction, +β-Amyloid P1 (±SEM), percent of control value: 10^-6 M β-amyloid fifteen minutes, control maximum = 100%; for PE induced contraction, +β-Amyloid P2 (±SEM), percent of control value: repeated after rinsing, no further β-amyloid. The protocol: (§1) Freshly excised rat and porcine blood vessels were placed in Kreb's bicarbonate buffer equilibrated with 5% CO2 in O2. The buffer composition consisted of 118.2 mM NaCl, 4.7 mM KCl, 1.2 mM MgSO4, 2.5 mM CaCl2, 1.2 mM NaH2 PO4, 23 mM NaHCO3 and 11.2 mM glucose. After cleaning the vessels free of fat and other adhering tissues, the vessels were cut into ring segments of approximately 3mm in length. Care was taken not to damage the intimal surface.
(§2) The blood vessel preparations were mounted on stainless steel hooks attached to a force-displacement transducer and equilibrated under the optimum tension of 1.3 g for a period of sixty minutes in a tissue bath (10 ml) containing oxygenated (5% CO2 in O2) Kreb's buffer at 37° C. The buffer was changed every fifteen minutes. After equilibration for sixty minutes the viability of the blood vessel with intact endothelium was established by constricting the blood vessel using phenylephrine ([…]). This dose of phenylephrine elicited 80% of the maximum response. […] The vessel preparations were washed for fifteen minutes before various manipulations as described below.
The procedure was then repeated following incubation of the tissue with 10^-6 M β-amyloid for fifteen minutes (P1). The tissue was then rinsed and contractions repeated twice following fifteen minute incubation (P2 & P3) without further addition of β-amyloid. Arrows are shown for points of addition for P3.
Following a fifteen minute incubation, the preparations were contracted with 10^-7 M phenylephrine (PE) as described earlier. Control contractions with PE alone were carried out in presence of the various test compounds. Values represent the mean ±SEM of four or more experiments. The heat-inactivated SOD was prepared by placing it in boiling water for thirty minutes followed by cooling prior to use. The hydrogen peroxide-inactivated SOD was prepared by exposing SOD to 10 mM H2 O2 for thirty minutes at pH 8.5 and subsequent separation using Microcon filtration system. The amyloid induced PE contraction was blocked by active SOD. Neither albumin or inactivated SOD had any effect on the amyloid activity.
The effect of preincubation of blood vessel with 10^-6 M β-amyloidon contraction induced by phenylephrine (2,4,8, & 16×10^-8 M is shown in Table 1). The maximum contraction in the absence of β-amyloid is taken as 100% and the values obtained following exposure to β-amyloid are expressed as percent of control value. After washing out phenylephrine and acetylcholine of the control contraction, β-amyloid augmented the phenylephrine induced contractions (P1). This effect was blocked by SOD. Washing out the phenylephrine and acetylcholine of the post peptide contraction and repeating the contractions caused further enhancement (P2). Values represent the mean ±SEM of nine or more experiments.
The tissue was then incubated for fifteen minutes with β-amyloid (5×10^-7 M) with or without the drug, followed by contractions with PE. The concentrations compounds used were: L-NMMA, an inhibitor of NO synthase (10^-4 M); indomethacin, an inhibitor of the cyclooxygenase pathway (10^-5 M); SQ 29548, a thromboxane A2 receptor antagonist (10^-5 M); and catalase (1000 units/ml). Values are represented as percentage of the maximal contraction obtained with β-amyloid and PE alone and standardized to remove the intrinsic effects (if any) of each drug on PE contraction alone. The results represent the mean ±SEM of five or more experiments.

Data set [2] relates to blood vessel (rat aorta) with intact endothelium. Nature of the data set: β-amyloid induced contraction (vasoactivity) of blood vessel rings in tissue bath. The format is cell-based. As to the method:
as §1
The endothelium was removed from some preparations by rubbing the inside of the lumen with a metal spatula for six to ten seconds and subsequent rinsing with buffer. The removal of endothelium was confirmed by testing for relaxation to acetylcholine [Furchgott and Zawadzki, 1980].
as §2
Referring to FIG. 10, the arrow indicates the addition of 10^-6 M β-amyloid. The control tissue received no β-amyloid. SOD (150 units/ml) was added thirty seconds prior to the addition of β-amyloid. The maximum contraction induced by β-amyloid was 1.14±0.13 (g) and in presence of SOD the contraction was reduced to 0.04±0.02 (g). Values represent the mean ±SEM of five separate experiments.

For data set [3], the system named is bovine mid cerebral arteries. Nature of the data set: Effect of β-amyloid on bovine cerebral artery (U46619 contraction, bradykinin vasodilation). It is filed as cell-based. The settings on record: 1 μM β-amyloid for 15 minutes. The protocol:
Freshly dissected bovine mid cerebral arteries were cut into 3 mm rings and studied in tissue chamber as described earlier. Contraction of the blood vessel to the vasoconstrictor U46619 was studied before and after treatment with 1 μM β-amyloid for 15 minutes. […] (See FIG. 24).

The test system of a further data set is Porcine aorta. Briefly: U46619 constriction and bradykinin relaxation of porcine vessel after amyloid peptide. It is filed as cell-based. The settings on record: single dose of amyloid. The text has this: The effect of pre-treatment with a single dose of amyloid protein on relaxation induced by increasing concentrations of the vasodilator bradykinin is shown in FIG. 23. […] was preconstricted with a single dose of the vasoconstrictor U46619.

For data set [4], the system named is endothelial cell layer in rat coronary artery. Nature of the data set: Electron microscopy of the endothelial cell layer in rat coronary artery. The format is cell-based. The settings on record: β-amyloid thirty minutes at 10^-6 M. As to the method:
The physiological effects of β-amyloid treatment on the coronary artery with and without pretreatment with SOD is shown in FIGS. 7A-C. FIGS. 7A-C are electron micrographs showing the endothelial cell layer in rat coronary artery. […] The tissue samples were kept in glutaraldehyde solution at 4° C. until processed and then rinsed with cacodylate buffer. The tissues were post-fixed with 1% buffered osmium tetroxide, dehydrated with grated ethanol solutions, and embedded in a mixture of eponaraldite. Ultra thin sections were stained with uranyl acetate and lead citrate and viewed on a model 7,000 Hitachi transmission electron microscope. The inset bar indicates two microns. The experiment was repeated three or more times with blood vessels from different animals. FIG. 7A is a control coronary artery and depicts normal endothelial cells closely adhering to the intimal elastic lamina lining of the lumen. […] FIG. 7C depicts a rat coronary artery pretreated with SOD (150 units/ml, for thirty seconds prior to the addition of β-amyloid).

Data set [5] concerns porcine coronary arteries. Nature of the data set: Amyloid peptide induced contraction of porcine coronary arteries. It is filed as cell-based. The settings on record: increasing concentrations of amyloid peptide. The text has this:
Freshly isolated porcine coronary arteries were studied by the methods described above for rat aorta.

The next data set concerns blood vessel (rat aorta). Briefly: Acetylcholine induced relaxation of phenylephrine-preconstricted aorta after β-amyloid pretreatment. The format is cell-based. As to the method: as §1, §2
As shown in FIG. 11a the aorta was preconstricted with 10^-7 M PE and relaxed with increasing doses of acetylcholine as shown by the arrows. (1=10^-9 M, 2=10^-8 M, 3=5×10^-8 M, 4=10^-7 M, 5=5×10^-7 M, 6=10^-6 M, 7=10^-5 M, 8=5×10^-5 M, the curve denoted by (C) is the control curve and +Aβ indicates the curve for β-amyloid treated aorta.)
FIG. 11b illustrates the relaxation by acetylcholine under control conditions and following fifteen minute incubation with 10^-6 M β-amyloid protein. The acetylcholine relaxation curve is shifted to the right but maintains its sigmoidal form indicating attenuation of acetylcholine induced relaxation. Values represent the mean ±SEM of 5 or more experiments. […] At higher doses of acetylcholine greater percentage changes in relaxation occur preserving the sigmoidal response.

Consider β-amyloid, for which the “β-amyloid concentration required to induce the morphological changes” value in data set [1] (incubation periods of fifteen minutes) was ≥ 5×10^-7 M. For the same substance, in data set [1] (β-amyloid 10^-6 M, 37° C., thirty minutes), the “morphological effect on endothelial cells” value is “induced significant damage to the endothelial cells”. For the same substance, the “effect of β-amyloid pretreatment on phenylephrine constriction” value in the data set with aortic rings (FIG. 4) is “enhanced constriction”. The “PE induced contraction, +β-Amyloid P1 (±SEM), percent of control value” was 13.3 (5.9) % in the data set with aortic rings (PE 2×10^-8 M), 75 (6.0) % in the data set with aortic rings (PE 4×10^-8 M), 105 (15.0) % with aortic rings (PE 8×10^-8 M) and 128 (11.7) % with aortic rings (PE 16×10^-8 M). Also, the “PE induced contraction, +β-Amyloid P2 (±SEM), percent of control value” is on record as 20 (5.0) % in the data set with aortic rings (PE 2×10^-8 M), 99 (15.0) % with aortic rings (PE 4×10^-8 M), 133 (20.0) % in the data set with aortic rings (PE 8×10^-8 M) and 141 (17.6) % with aortic rings (PE 16×10^-8 M). Besides, the “duration of the vasoactivity (contractions and relaxations)” value in data set [2] was “fifteen to twenty minutes”. For the same substance, the “time until vasoactive effect is evident” value in data set [2] was “within thirty seconds; also recorded: less than one minute; also recorded: less than five minutes”. Besides, in data set [2] (after addition of β-amyloid), the “initial detectable change: minor relaxation” value is below 0.1 g. Besides, the “effect of β-amyloid on basal tension” value in data set [2] (increasing concentrations of β-amyloid) is “constricted the blood vessel in a concentration-dependent manner”. Also, the “dependence of the constricting effect on endothelium” value in data set [2] (vessel with vs without endothelium) is on record as “only occurred in the presence of endothelium”. Also, the “contraction induced by the vasoconstrictor U46619 after β-amyloid” value in data set [3] was “significantly increased”. Besides, the “effect on vasodilation by bradykinin” value with Porcine aorta (increasing concentrations of bradykinin) is “reduced the vasodilation caused by the bradykinin”. Further, the effect on vasoconstriction entry in the data set with Porcine aorta (preconstricted with U46619) is “significant increase in vasoconstriction”. In data set [4], the “morphology of endothelial layer after β-amyloid” value is “Derangement of the endothelial layer, condensed nucleus, separation from the intimal elastic lamina, and areas of denuded internal elastic lamina”. For the same substance, the “contraction of porcine coronary artery samples” value in data set [5] is given as “dose dependent contraction”. In addition, the “cumulative percentage relaxation by acetylcholine after β-amyloid” value in the data set with blood vessel (rat aorta) (10^-6 M β-amyloid, fifteen minute incubation, 10^-7 M phenylephrine, all points past 10^-8 M acetylcholine) is given as “significantly lowered”. Besides, the “effect of β-amyloid pretreatment on acetylcholine induced relaxation” value with blood vessel (rat aorta) (cumulative small doses of acetylcholine (FIG. 4)) is “significantly reduced relaxation induced by the same doses of acetylcholine”. For the same substance, the “effect of washing the tissue after β-amyloid on acetylcholine induced relaxation” value in the data set on blood vessel (rat aorta) (washout after β-amyloid exposure) is “did not restore the acetylcholine-induced relaxation to control levels”.
